This test deals with L1210 leukemia ip in BDF1 mice, survival T/C. As to the kind of experiment: NCI In Vivo Anticancer Drug Screen. Data for tumor model L1210 Leukemia (intraperitoneal) in B6D2F1 (BDF1) mice. As to conditions: endpoint: mean survival time, higher = longer survival. In a few lines:
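In this screen, tumor-bearing mice given compound are compared to those given vehicle, and their survival values are reported as a treated-to-control quotient.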

[1] abbreviates: dose: 100.0 mg/kg/injection, schedule: Q04DX003 (ip), vehicle: Klucel (hydroxypropylcellulose) (HPC).
The mark [2] stands for this setting: dose: 200.0 mg/kg/injection, schedule: Q04DX003 (ip), vehicle: Klucel (hydroxypropylcellulose) (HPC).
The mark [3] stands for this setting: dose: 100.0 mg/kg/injection, schedule: Q01DX001 (ip), vehicle: saline.
The mark [4] stands for this setting: dose: 200.0 mg/kg/injection, schedule: Q01DX001 (ip), vehicle: saline.
[5] abbreviates: dose: 100.0 mg/kg/injection, schedule: Q04DX003 (ip), vehicle: saline with Tween-80.
Where [6] appears, read: dose: 200.0 mg/kg/injection, schedule: Q04DX003 (ip), vehicle: saline with Tween-80.
[7] abbreviates: dose: 400.0 mg/kg/injection, schedule: Q04DX003 (ip), vehicle: saline with Tween-80.
The mark [8] stands for this setting: dose: 400.0 mg/kg/injection, schedule: Q01DX001 (ip), vehicle: saline.

From PubChem BioAssay AID248 (DTP/NCI, 2004) come the findings set out here.

Structures are written as SMILES. Inconclusive results and toxic doses are left out.

For the compound `Cc1cc(C)c(F)c(Br)c1N`, the T/C is, setting by setting: (dose: 50.0 mg/kg/injection, schedule: Q04DX003 (ip), vehicle: Klucel (hydroxypropylcellulose) (HPC)) 95 % of control; (dose: 100.0 mg/kg/injection, schedule: Q01DX001 (ip), vehicle: Klucel (hydroxypropylcellulose) (HPC)) 97 % of control; under setting [1], 95 % of control; (dose: 200.0 mg/kg/injection, schedule: Q01DX001 (ip), vehicle: Klucel (hydroxypropylcellulose) (HPC)) 101 % of control; under setting [2], 106 % of control; (dose: 400.0 mg/kg/injection, schedule: Q01DX001 (ip), vehicle: Klucel (hydroxypropylcellulose) (HPC)) 100 % of control.
Consider `CCOc1ccc(-c2nccs2)cc1N`, for which the T/C was 104 % of control (dose: 75.0 mg/kg/injection, schedule: Q04DX003 (ip), vehicle: Klucel (hydroxypropylcellulose) (HPC)); 92 % of control (dose: 150.0 mg/kg/injection, schedule: Q04DX003 (ip), vehicle: Klucel (hydroxypropylcellulose) (HPC)); 93 % of control (dose: 300.0 mg/kg/injection, schedule: Q04DX003 (ip), vehicle: Klucel (hydroxypropylcellulose) (HPC)).
`O=CO.[Cd]`: for the setting “dose: 5.0 mg/kg/injection, schedule: Q01DX001 (ip), vehicle: saline”, the T/C was 104 % of control.
As for `CCCNC1=C(C)C(=O)C2=C(C1=O)[C@H](COC(N)=O)[C@]1(OC)[C@@H]3N[C@@H]3CN21`, the T/C runs as follows: (dose: 2.9 mg/kg/injection, schedule: Q01DX001 (ip), vehicle: acetone) 109 % of control; (dose: 4.3 mg/kg/injection, schedule: Q01DX001 (ip), vehicle: acetone) 117 % of control; (dose: 4.5 mg/kg/injection, schedule: Q01DX009 (ip), vehicle: acetone) 118 % of control; (dose: 6.6 mg/kg/injection, schedule: Q01DX001 (ip), vehicle: saline) 108 % of control; (dose: 7.5 mg/kg/injection, schedule: Q01DX009 (ip), vehicle: acetone) 86 % of control; (dose: 9.9 mg/kg/injection, schedule: Q01DX001 (ip), vehicle: saline) 101 % of control. Further, the T/C by setting is: (dose: 15.0 mg/kg/injection, schedule: Q01DX001 (ip), vehicle: acetone) 165 % of control; (dose: 15.0 mg/kg/injection, schedule: Q01DX001 (ip), vehicle: saline) 110 % of control; (dose: 22.0 mg/kg/injection, schedule: Q01DX001 (ip), vehicle: acetone) 92 % of control; (dose: 22.0 mg/kg/injection, schedule: Q01DX001 (ip), vehicle: saline) 113 % of control.
Regarding `CCCCCCCCCCNC(=O)CI`, the T/C under setting [3] is 100 % of control and the T/C under setting [4] is 94 % of control.
Turning to `CCOC(=O)CN1C(=O)NC(C)(c2ccc(Cl)cc2)C1=O` (configuration not stated), the T/C under setting [5] was 106 % of control, the T/C under setting [6] was 98 % of control and the T/C under setting [7] was 96 % of control.
Consider `S=C(NC1CCCCC1)N1CCC(CCCC2CCN(C(=S)NC3CCCCC3)CC2)CC1`, for which the T/C is, setting by setting: (dose: 100.0 mg/kg/injection, schedule: Q01DX009 (ip), vehicle: saline with Tween-80) 95 % of control; (dose: 200.0 mg/kg/injection, schedule: Q01DX009 (ip), vehicle: saline with Tween-80) 97 % of control; (dose: 400.0 mg/kg/injection, schedule: Q01DX009 (ip), vehicle: saline with Tween-80) 97 % of control.
`CC1(c2ccc[n+](CC(=O)c3ccccc3)c2)OCCO1`: the T/C was 104 % of control (dose: 75.0 mg/kg/injection, schedule: Q01DX001 (ip), vehicle: saline) and 105 % of control (dose: 150.0 mg/kg/injection, schedule: Q01DX001 (ip), vehicle: saline).
With `CCCC(=O)OCC1OC(n2cnc3c(=S)nc[nH]c32)C(OC(=O)CCC)C1OC(=O)CCC` (configuration not stated), the T/C is, setting by setting: (dose: 3.12 mg/kg/injection, schedule: Q04DX003 (ip), vehicle: saline) 97 % of control; (dose: 6.25 mg/kg/injection, schedule: Q01DX009 (ip), vehicle: saline) 112 % of control; (dose: 6.25 mg/kg/injection, schedule: Q01DX Z (ip), vehicle: other) 117 % of control; (dose: 6.25 mg/kg/injection, schedule: Q04DX003 (ip), vehicle: saline) 113 % of control; (dose: 8.36 mg/kg/injection, schedule: Q01DX009 (ip), vehicle: saline with Tween-80) 122 % of control; (dose: 8.36 mg/kg/injection, schedule: Q04DX003 (ip), vehicle: saline with Tween-80) 107 % of control. For the same compound, the T/C by setting is: (dose: 12.5 mg/kg/injection, schedule: Q01DX009 (ip), vehicle: saline) 122 % of control; (dose: 12.5 mg/kg/injection, schedule: Q04DX003 (ip), vehicle: saline with Tween-80) 114 % of control; (dose: 12.5 mg/kg/injection, schedule: Q04DX003 (ip), vehicle: saline) 118 % of control; (dose: 25.0 mg/kg/injection, schedule: Q01DX Z (ip), vehicle: other) 153 % of control; (dose: 25.0 mg/kg/injection, schedule: Q04DX003 (ip), vehicle: saline) 121 % of control; (dose: 26.0 mg/kg/injection, schedule: Q01DX001 (ip), vehicle: saline) 121 % of control. The T/C (dose: 40.0 mg/kg/injection, schedule: Q01DX001 (ip), vehicle: saline) is 121 % of control; the T/C (dose: 50.0 mg/kg/injection, schedule: Q01DX009 (ip), vehicle: saline) was 164 % of control; the T/C (dose: 50.0 mg/kg/injection, schedule: Q01DX Z (ip), vehicle: other) was 89 % of control; the T/C (dose: 200.0 mg/kg/injection, schedule: Q04DX003 (ip), vehicle: saline) is 123 % of control; the T/C (dose: 300.0 mg/kg/injection, schedule: Q01DX001 (ip), vehicle: saline) is 151 % of control; the T/C under setting [8] is 121 % of control. The T/C is, setting by setting: (dose: 400.0 mg/kg/injection, schedule: Q01DX009 (ip), vehicle: saline) 100 % of control; (dose: 400.0 mg/kg/injection, schedule: Q04DX003 (ip), vehicle: saline) 105 % of control.
Take `CC1CCN(c2ccc([N+](=O)[O-])cc2[N+](=O)[O-])CC1`: the T/C is 99 % of control (dose: 100.0 mg/kg/injection, schedule: Q01DX009 (ip), vehicle: Klucel (hydroxypropylcellulose) (HPC)); 104 % of control under setting [1]; 99 % of control (dose: 200.0 mg/kg/injection, schedule: Q01DX009 (ip), vehicle: Klucel (hydroxypropylcellulose) (HPC)); 98 % of control under setting [2]; 103 % of control (dose: 400.0 mg/kg/injection, schedule: Q04DX003 (ip), vehicle: Klucel (hydroxypropylcellulose) (HPC)).
Consider `O=[N+]([O-])c1cccc(S(=O)(=O)OCCOc2ccccc2)c1`, for which the T/C runs as follows: under setting [5], 103 % of control; under setting [6], 101 % of control; under setting [7], 101 % of control.
Consider `Oc1ccccc1C=NCCN=Cc1ccccc1O.[Ni]`, for which the T/C is 109 % of control (dose: 88.0 mg/kg/injection, schedule: Q01DX001 (ip), vehicle: other); 100 % of control (dose: 100.0 mg/kg/injection, schedule: Q01DX001 (ip), vehicle: other); 107 % of control (dose: 133.0 mg/kg/injection, schedule: Q01DX001 (ip), vehicle: other); 108 % of control (dose: 200.0 mg/kg/injection, schedule: Q01DX001 (ip), vehicle: other).
Take `CC1CN=C(c2ccc(NC(=O)Nc3ccc(C4=NCCN4)cc3)cc2)N1` (configuration not stated): the T/C reads like this: (dose: 1.88 mg/kg/injection, schedule: Q01DX Z (ip), vehicle: saline) 112 % of control; (dose: 3.75 mg/kg/injection, schedule: Q01DX Z (ip), vehicle: saline) 113 % of control.
For `O=C(O)/C=C/c1cccc(Cl)c1`, the T/C (dose: 100.0 mg/kg/injection, schedule: Q01DX009 (ip), vehicle: gum acacia) was 113 % of control; the T/C (dose: 200.0 mg/kg/injection, schedule: Q01DX009 (ip), vehicle: gum acacia) was 104 % of control; the T/C (dose: 400.0 mg/kg/injection, schedule: Q01DX009 (ip), vehicle: gum acacia) is 100 % of control.
`CSc1cc(=O)n(C2OC(CO)C(O)C2O)c(=O)[nH]1` (configuration not stated): the T/C by setting is: under setting [3], 101 % of control; (dose: 100.0 mg/kg/injection, schedule: Q01DX005 (ip), vehicle: saline) 101 % of control; under setting [4], 118 % of control; (dose: 200.0 mg/kg/injection, schedule: Q01DX005 (ip), vehicle: saline) 97 % of control; under setting [8], 104 % of control.
